Where a name gives a salt, the structure may show the parent alone.

One assay deals with T1, Smoothened (SMO) (Mus musculus, UniProt P56726).
T1 construct: C3H10T1/2 cells (ATCC #CCL-226) were split and seeded; endogenous in cells; host or cells: C3H10T1/2 (ATCC #CCL-226)
T1 sequence (P56726 33-793): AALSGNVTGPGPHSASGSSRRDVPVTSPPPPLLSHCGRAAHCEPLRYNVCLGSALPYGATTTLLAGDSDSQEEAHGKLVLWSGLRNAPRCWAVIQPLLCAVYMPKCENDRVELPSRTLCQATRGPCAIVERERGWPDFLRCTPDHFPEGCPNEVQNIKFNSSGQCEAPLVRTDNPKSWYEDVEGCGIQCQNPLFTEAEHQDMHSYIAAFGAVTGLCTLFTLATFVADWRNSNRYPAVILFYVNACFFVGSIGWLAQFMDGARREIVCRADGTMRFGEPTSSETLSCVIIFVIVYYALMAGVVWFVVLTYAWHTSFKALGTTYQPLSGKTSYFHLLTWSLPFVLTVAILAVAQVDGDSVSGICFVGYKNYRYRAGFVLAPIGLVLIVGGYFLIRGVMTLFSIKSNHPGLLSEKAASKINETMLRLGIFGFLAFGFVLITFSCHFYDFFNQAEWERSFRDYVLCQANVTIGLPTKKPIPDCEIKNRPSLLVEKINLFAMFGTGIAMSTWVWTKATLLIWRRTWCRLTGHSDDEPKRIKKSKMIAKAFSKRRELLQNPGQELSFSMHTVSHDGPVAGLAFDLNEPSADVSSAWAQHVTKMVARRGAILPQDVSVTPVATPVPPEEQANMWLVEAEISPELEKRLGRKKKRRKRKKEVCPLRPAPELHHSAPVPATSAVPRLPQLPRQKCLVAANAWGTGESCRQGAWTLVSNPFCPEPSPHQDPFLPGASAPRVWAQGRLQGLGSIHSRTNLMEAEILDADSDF
Nature of the assay: Smoothened (SMO)/Sonic Hedgehog (SHh) Transient Transcriptional Activation Assay (Gli-luciferase reporter in C3H10T1/2 cells). It counts as cell-based, murine. Conditions: 2 μM compound; transfected C3H10T1/2 cells, recombinant human SHh 250 ng/mL, 20 hours, luciferase readout; 2 µM. Here is the method: As noted above, the compounds of the invention are useful as inhibitors of SMO. • Methods for determining the in vitro activity of these compounds are described below: Smoothened (SMO)/Sonic Hedgehog (SHh) Transient Transcriptional Activation Assay
On Day 1, 2×10^6 C3H10T1/2 cells (ATCC #CCL-226) were split and seeded in 12 mL of growth medium Basal Medium Eagle (BME, Invitrogen #21010-046) supplemented with 2 mM L-glutamine (Invitrogen #25030-081), 0.1 units/mL penicillin and 0.1 μg/mL streptomycin (Invitrogen #15140-122), and 10% Fetal Bovine Serum (FBS, Invitrogen #16140-071) in a T-75 flask (Costar #3376). They were allowed to attach for 4 hours at 37° C., 5% CO2. The cells were then transfected using Fugene 6 (Roch #11 814 443 001) in the following reaction: 48 μL Fugene 6 and 745 μL Opti-MEM (Invitrogen #31985-070) were mixed and allowed to sit at room temperature for 5 minutes. 8 μg of pGL4.14/mGli(CS) DNA (10× murine Gli response elements and minimal CS promoter) and 0.5 μg of pEGFP DNA (Clontech) were added, gently mixed and incubated at room temperature for 20 minutes. This entire transfection mix was then added to the T-75 flask containing the cells. The cells were incubated at 37° C., 5% CO2 for 18-24 hours.
On Day 2, the transfected cells were trypsinized and seeded into white 96 well plates (Costar #3917) in 100 μL/well of growth medium at a concentration of 20,000 cells/well. The cells were allowed to recover for 4 hours before adding serum starvation medium Dulbecco's Modified Eagle Medium (DMEM, Invitrogen #21063-029) supplemented with 2 mM L-glutamine, 0.1 units/mL penicillin and 0.1 μg/mL streptomycin, and 0.5% Calf Serum (CS, Invitrogen #26170-043). The growth media was aspirated off, and the cells were rinsed with 100 μL of starvation media. 95 μL of starvation media was then added to each well. The cells were incubated for 20 hours at 37° C., 5% CO2.
On Day 3, cells were dosed with test compounds at a final concentration ranging from 2 μM to 2 nM. Immediately after dosing cells with compounds, recombinant human sonic hedgehog (SHh, R&D Systems #1845-SH) was add to a final concentration of 250 ng/mL. A 25 μg vial of SHh was reconstituted with 250 μL PBS/0.1% BSA to give a 100 ng/μL working stock. This working stock was then diluted 1:20 in starvation media. The transfected cells were incubated with compounds and SHh for 20 hours at 37° C., 5% CO2.
Luciferase assays were conducted on Day 4 using Dual-Glo Luciferase assay system (Promega #E2940) according to Promega's protocol. Briefly, Dual-Glo luciferase reagent was made up and 100 μL were added to each well of the 96 well plate containing media. Plates were shaken at room temperature for 10 minutes, and then read on TopCount (Perkin-Elmer). The luminescence was recorded.
For orientation: A reporter such as luciferase makes a cellular process visible.
Turning to `O=C(N[C@@H]1CN[C@H](c2nc3ccccc3[nH]2)C1)c1ccc2c(c1)OCCO2` [Example 11, N-[(3S,5S)-5-(1H-benzimidazol-2-yl)pyrrolidin-3-yl]-2,3-dihydro-1,4-benzodioxine-6-carboxamide], the “SMO CELL % INHIBITION @ 2 μM” value amounted to 110.10%.

The same assay, now with this note: C3H 10T1/2, 2 μM compound; transfected C3H10T1/2 cells, recombinant human SHh 250 ng/mL, 20 hours, luciferase readout; read-out: SMO CELL % INHIBITION @ 2 μM.
For `COc1ccc2[nH]c([C@H]3C[C@H](NC(=O)Nc4ccc(C)nc4)CCN3C3CCC3)nc2c1` [Example 153, 1-[(2R,4R)-1-cyclobutyl-2-(5-methoxy-1H-benzimidazol-2-y1)piperidin-4-yl]-3-(6-methylpyridin-3-yl)urea triflouroacetate], the inhibition (in general, the change of the read-out against control, counted positive when it falls) at 2 µM stood at 107%.

In the case of `CCN1CC[C@@H](NC(=O)c2ccc3c(c2)OCCO3)C[C@@H]1c1nc2ccccc2[nH]1` [Example 44, N-[(2R,4R)-2-(1H-benzimidazol-2-yl)-1-ethylpiperidin-4-yl]-2,3-dihydro-1,4-benzodioxine-6-carboxamide hydrochloride], the inhibition at 2 µM was determined as 105%.

For the molecule `CN1CC[C@@H](NC(=O)Nc2ccc(F)nc2)C[C@@H]1c1nc2ccccc2[nH]1` [Example 32, 1-[(2R,4R)-2-(1H-benzimidazol-2-yl)-1-methylpiperidin-4-yl]-3-(6-fluoropyridin-3-yl)urea hydrochloride], the inhibition at 2 µM was determined as 107%. The same measure, in the same setting: in the case of `CN1CC[C@@H](NC(=O)Nc2ccc(C#N)cc2)C[C@@H]1c1nc2cc(C#N)ccc2[nH]1` [Example 19, 1-[(2R,4R)-2-(5-cyano-1H-benzimidazol-2-yl)-1-methylpiperidin-4-yl]-3-(4-cyanophenyl)urea hydrochloride] it was 109%. Same read-out and setting: to `CN1C[C@H](NC(=O)Nc2ccc(Cl)c(C(F)(F)F)c2)C[C@H]1c1nc2ccc(F)cc2[nH]1` [Example 14, 1-[4-chloro-3-(trifluoromethyl)phenyl]-3-[(3R,5S)-5-(6-fluoro-1H-benzimidazol-2-yl)-1-methylpyrrolidin-3-yl]urea] belongs 81.8%; to `O=C(N[C@@H]1CCN(C2CC2)[C@@H](c2nc3ccccc3[nH]2)C1)c1ccc2c(c1)OCCO2` [Example 125, N-[(2R,4R)-2-(1H-benzimidazol-2-yl)-1-cyclopropylpiperidin-4-yl]-2,3-dihydro-1,4-benzodioxine-6-carboxamide hydrochloride], 102%. Still for that read-out and setting: in the case of `COc1ccc2[nH]c([C@H]3C[C@H](NC(=O)Nc4ccc(C(F)(F)F)nc4)CCN3C)nc2c1` [Example 62, 1-[(2R,4R)-2-(5-methoxy-1H-benzimidazol-2-yl)-1-methylpiperidin-4-yl]-3-[6-(trifluoromethyl)pyridin-3-yl]urea hydrochloride] it was 104%; in that of `Cc1ccc2nccc(C(=O)N[C@@H]3CCN(C)[C@@H](c4nc5ccccc5[nH]4)C3)c2c1` [Example 103, N-[(2R,4R)-2-(1H-benzimidazol-2-yl)-1-methylpiperidin-4-yl]-6-methylquinoline-4-carboxamide trifluoroacetate], 100%; in that of `COc1cccc(C(=O)N[C@@H]2CCN(C)[C@@H](c3nc4ccccc4[nH]3)C2)c1` [Example 112, N-[(2R,4R)-2-(1H-benzimidazol-2-yl)-1-methylpiperidin-4-yl]-3-methoxybenzamide trifluoroacetate], 81.7%. Take `COc1ccc(NC(=O)N[C@@H]2CCN(C)[C@@H](c3nc4ccc(F)cc4[nH]3)C2)cn1` [Example 139, 1-[(2R,4R)-2-(6-fluoro-1H-benzimidazol-2-yl)-1-methylpiperidin-4-yl]-3-(6-methoxypyridin-3-yl)urea hydrochloride]: the inhibition at 2 µM was found to be 106%. Still for that read-out and setting: in the case of `CN1CC[C@@H](NC(=O)c2cc3ccccc3n2C)C[C@@H]1c1nc2ccccc2[nH]1` [Example 113, N-[(2R,4R)-2-(1H-benzimidazol-2-yl)-1-methylpiperidin-4-yl]-1-methyl-1H-indole-2-carboxamide trifluoroacetate] it was 76.1%; in that of `Cc1ccc(NC(=O)N[C@@H]2CCN(C3CCC3)[C@@H](c3nc4cc(C)c(C)cc4[nH]3)C2)cn1` [Example 152, 1-[(2R,4R)-1-cycobutyl-2-(5,6-dimethy-1H-benzimidazol-2-yl)piperidin-4-yl]-3-(6-methylpyridin-3-yl)urea triflouroacetate], 106%; in that of `CC(C)CCN1CC[C@@H](NC(=O)Nc2ccc(C#N)cc2)C[C@@H]1c1nc2ccccc2[nH]1` [Example 60, 1-[(2R,4R)-2-(1H-benzimidazol-2-yl)-1-(3-methylbutyl)piperidin-4-yl]-3-(4-cyanophenyl)urea], 104%.

With `CN1CC[C@@H](NC(=O)Nc2cccnc2)C[C@@H]1c1nc2ccccc2[nH]1` [Example 80, 1-[(2R,4R)-2-(1H-benzimidazol-2-yl)-1-methylpiperidin-4-yl]-3-pyridin-3-ylurea hydrochloride], the inhibition at 2 µM came to 98%.

For `Cc1ccc2nc([C@@H]3C[C@H](NC(=O)Nc4ccc(Cl)c(C(F)(F)F)c4)CN3C)[nH]c2c1` [Example 22, 1-[4-chloro-3-(trifluoromethyl)phenyl]-3-[(3S,5S)-1-methyl-5-(6-methyl-1H-benzimidazol-2-yl)pyrrolidin-3-yl]urea], the inhibition at 2 µM stood at 102%.

Regarding `Cc1ccc(NC(=O)N[C@@H]2CCN(C)[C@@H](c3nc4ccc(Cl)cc4[nH]3)C2)cn1` [Example 126, 1-[(2R,4R)-2-(6-chloro-1H-benzimidazol-2-yl)-1-methylpiperidin-4-yl]-3-(6-methylpyridin-3-yl)urea hydrochloride], the inhibition at 2 µM is 110%. Still for that read-out and setting: to `COc1ccc(NC(=O)N[C@@H]2CCN(C)[C@@H](c3nc4cc(C)ccc4[nH]3)C2)cn1` [Example 137, 1-{6-methoxypyridin-3-yl)-3-[(2R.4R)-1-methyl-2-(5-methyl-1H-benzimidazol-2-yl)piperidin-4-yl]urea hydrochloride] belongs 102%; to `Cc1cc2nc([C@H]3C[C@H](NC(=O)c4ccc5c(c4)OCCO5)CCN3C)[nH]c2cc1C` [Example 49, N-[(2R,4R)-2-(5,6-dimethyl-1H-benzimidazol-2-yl)-1-methylpiperidin-4-yl]-2,3-dihydro-1,4-benzodioxine-6-carboxamide hydrochloride], 105%. `CN1CC[C@@H](NC(=O)Nc2ccc(Cl)cc2)C[C@@H]1c1nc2ccccc2[nH]1` [Example 30, 1-[(2R,4R)-2-(1H-benzimidazol-2-yl)-1-methylpiperidin-4-yl]-3-(4-chlorophenyl)urea hydrochloride]: the inhibition at 2 µM was 108%. Still for that read-out and setting: in the case of `CN1CC[C@@H](NC(=O)Cn2nc3ccccc3n2)C[C@@H]1c1nc2ccccc2[nH]1` [Example 106, N-[(2R,4R)-2-(1H-benzimidazol-2-yl)-1-methylpiperidin-4-yl]-2-(2H-1,2,3-benzotriazol-2-yl)acetamide trifluoroacetate] it was 94.5%; in that of `CN1CC[C@@H](NC(=O)c2cnc3c(c2)OCCO3)C[C@@H]1c1nc2ccccc2[nH]1` [Example 97, N-[(2R,4R)-2-(1H-benzimidazol-2-yl)-1-methylpiperidin-4-yl]-2,3-dihydro[1,4]dioxino[2,3-b]pyridine-7-carboxamide hydrochloride], 75.4%.

For `CN1CC[C@@H](NC(=O)Cn2ncc3ccccc32)C[C@@H]1c1nc2ccccc2[nH]1` [Example 109, N-[(2R,4R)-2-(1H-benzimidazol-2-yl)-1-methylpiperidin-4-yl]-2-(1H-indazol-1-yl)acetamide trifluoroacetate], the inhibition at 2 µM was determined as 85.2%. The same measure, in the same setting: in the case of `O=C(N[C@H]1C[C@@H](c2nc3ccccc3[nH]2)N(C(=O)OCc2ccccc2)C1)c1ccc2c(c1)OCCO2` [Example 10, benzyl (2S,4S)-2-(1H-benzimidazol-2-yl)-4-[(2,3-dihydro-1,4-benzodioxin-6-ylcarbonyl)amino]pyrrolidine-1-carboxylate] it was 106%.

Values taken from patent publication US8431597B2, “Benzimidazole derivatives” (Pfizer Inc., priority 2007, dated 2013).
